Source: PMC3578427 (Journal of medicinal chemistry, 2011)
Structures can show the parent of a compound that is named as a salt.

Legend:
hA3 AR = target: T1, hA3 AR (Homo sapiens, UniProt P0DMS8)
T1 sequence (P0DMS8 1-318): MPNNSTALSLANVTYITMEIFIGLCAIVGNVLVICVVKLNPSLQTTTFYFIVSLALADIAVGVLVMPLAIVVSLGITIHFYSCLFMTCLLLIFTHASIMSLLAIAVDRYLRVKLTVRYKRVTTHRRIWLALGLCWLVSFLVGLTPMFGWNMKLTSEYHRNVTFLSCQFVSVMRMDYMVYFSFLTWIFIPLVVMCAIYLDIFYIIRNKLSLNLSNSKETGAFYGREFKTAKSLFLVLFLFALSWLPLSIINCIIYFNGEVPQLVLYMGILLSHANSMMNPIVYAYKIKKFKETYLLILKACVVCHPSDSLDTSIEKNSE

hA2B AR = target: T2, hA2B AR (Homo sapiens, UniProt P29275)
T2 sequence (P29275 1-332): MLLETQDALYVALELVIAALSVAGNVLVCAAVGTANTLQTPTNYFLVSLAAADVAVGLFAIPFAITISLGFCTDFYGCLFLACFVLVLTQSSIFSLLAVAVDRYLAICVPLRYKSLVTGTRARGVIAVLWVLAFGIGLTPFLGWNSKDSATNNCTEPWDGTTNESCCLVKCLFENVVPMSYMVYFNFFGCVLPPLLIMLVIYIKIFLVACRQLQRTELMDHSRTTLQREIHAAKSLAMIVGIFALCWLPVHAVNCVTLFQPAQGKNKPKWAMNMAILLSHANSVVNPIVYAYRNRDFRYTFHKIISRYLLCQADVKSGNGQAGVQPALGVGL

Water solubility = format: physicochemical
human (h) A2B AR = details: cited from earlier work

SMILES	activity at hA2B AR in the functional assay (hA2B AR)	other results
CC(C)(C)OC(=O)NCCNc1nc(N)n2nc(-c3ccco3)nc2n1 [Compound 10, 7-Amino-5-[(2-tert-butyloxycarbonylamino)ethyl]-amino-2(2-furyl) 1,2,4-triazolo [1,5-a] 1,3,5-triazine]		Ki (hA3 AR): ~1000 nM
CC(C)(C)OC(=O)NCC1CCC(CNc2nc(N)n3nc(-c4ccco4)nc3n2)CC1 (stereo not drawn) [Compound 11, 7-Amino-5-[(4-tert-butyloxycarbonylaminomethyl)cyclohexylmethyl]-amino-2(2-furyl) 1,2,4-triazolo [1,5-a] 1,3,5-triazine]	poorly active	
NCCOCCOCCNc1nc(N)n2nc(-c3ccco3)nc2n1.O=C(O)C(F)(F)F [Compound 20, 7-Amino-5-[(8-amino)triethylenoxy]-amino-2(2-furyl) 1,2,4-triazolo [1,5-a] 1,3,5-triazine trifluoroacetate]		solubility (Water solubility): ≥ 10 mM
Nc1nc(N)n2nc(-c3ccco3)nc2n1 [Compound 41, 5,7-diamino-2(2-furyl) 1,2,4-triazolo [1,5-a] 1,3,5-triazine]	poorly active	
Nc1nc(NC(=O)c2ccccc2)n2nc(-c3ccco3)nc2n1 [Compound 43, 5-amino-7-phenylcarbonylamino-2(2-furyl) 1,2,4-triazolo [1,5-a] 1,3,5-triazine trifluoroacetate]	poorly active	
Nc1nc(NCCc2ccc(O)cc2)nc2nc(-c3ccco3)nn12 [ZM241385]		affinity at hA2B AR (human (h) A2B AR): 28 nM
